Measurements taken from US20260083865A1, “PROSTATE SPECIFIC MEMBRANE ANTIGEN (PSMA) LIGANDS AND USE THEREOF” (priority 2022, published 2026).
Where two headings read alike, the source gives them in different places. Numbered stars: 1 amine (or outer) side, 2 acyl side, 3 side chain; on linkers, the order of the positions; unused ones are H or OH. Bridge positions count the residues as written; N and C are the ends. Square brackets hold non-standard residues; d marks the D form. Peptide text beside a SMILES is read from it. * marks the point of attachment. Acetyl(1-DOTA-4-piperidyl) = O=C(O)CN1CCN(CC(=O)O)CCN(CC(=O)N2CCC(CC(=O)*)CC2)CCN(CC(=O)O)CC1; DOTA = O=C(O)CN1CCN(CC(=O)O)CCN(CC(=O)*)CCN(CC(=O)O)CC1; Phe(4-Cl) = N[C@@H](Cc1ccc(Cl)cc1)C(=O)O; αMeF = C[C@](N)(Cc1ccccc1)C(=O)O; X1 = O=C(CC1CCN([*:1])CC1)[*:2]; Cit = NC(=O)NCCC[C@H](N)C(=O)O; Tle = CC(C)(C)[C@H](N)C(=O)O; X15 = O=C1NC(=O)C(CC(=O)*)N1; NHCH2CH2NMe2 = CN(C)CCN*; Aib = CC(C)(N)C(=O)O; Guanidino = N=C(N)N*

Assays:
[1] = molecular target: T1, PSMA-expressing C4-2 cells (Homo sapiens, UniProt Q04609); assay: FACS binding assay (competition with 50 nM PSM-0183); conditions: read-out: pIC50 [C4-2] CAT (converted)
T1 construct: PSMA-expressing C4-2 cells (ATCC, Cat. No. CRL-3314) were cultured in RPMI-1640; host or cells: C4-2 cells
In short: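 Competition format: fluorescent tracer PSM-0183 (50 nM) displaced from PSMA on C4-2 cells by a test compound titration over 1 h at 4 °C. Bound tracer was quantified as flow-cytometric AF488 median fluorescence after washing. Four-parameter logistic fits of MFI data gave IC50 and pIC50.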

[2] = molecular target: T2, Fc-fusion protein of human PSMA (hPSMA-Fc) (Homo sapiens, UniProt Q04609); assay: Surface plasmon resonance assay (Biacore T200, single cycle kinetic); assay type: binding; conditions: hPSMA-Fc, 25° C., read-out: pKD CAT (converted)
T2 construct: purchased Acro Biosystems PSA-H5264
In short: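 KD, expressed as pKD, came from 1:1 Langmuir fits of reference- and buffer-blank-subtracted SPR data. The runs were single-cycle kinetics at 25° C in HBST/0.1% DMSO over human PSMA-Fc, captured to ~1000 RU on a peptide-coated CM5 surface and regenerated with 10 mM glycine pH 1.5.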

[3] = FACS binding, C4-2 cells, competition with 50 nM PSM-0183, category
[4] = SPR, single cycle kinetic, category
[5] = pIC50 category of FACS binding, C4-2 cells
[6] = pKD category for PSMA SPR activity assay

T2 sequence (Q04609 44-750 limits assumed): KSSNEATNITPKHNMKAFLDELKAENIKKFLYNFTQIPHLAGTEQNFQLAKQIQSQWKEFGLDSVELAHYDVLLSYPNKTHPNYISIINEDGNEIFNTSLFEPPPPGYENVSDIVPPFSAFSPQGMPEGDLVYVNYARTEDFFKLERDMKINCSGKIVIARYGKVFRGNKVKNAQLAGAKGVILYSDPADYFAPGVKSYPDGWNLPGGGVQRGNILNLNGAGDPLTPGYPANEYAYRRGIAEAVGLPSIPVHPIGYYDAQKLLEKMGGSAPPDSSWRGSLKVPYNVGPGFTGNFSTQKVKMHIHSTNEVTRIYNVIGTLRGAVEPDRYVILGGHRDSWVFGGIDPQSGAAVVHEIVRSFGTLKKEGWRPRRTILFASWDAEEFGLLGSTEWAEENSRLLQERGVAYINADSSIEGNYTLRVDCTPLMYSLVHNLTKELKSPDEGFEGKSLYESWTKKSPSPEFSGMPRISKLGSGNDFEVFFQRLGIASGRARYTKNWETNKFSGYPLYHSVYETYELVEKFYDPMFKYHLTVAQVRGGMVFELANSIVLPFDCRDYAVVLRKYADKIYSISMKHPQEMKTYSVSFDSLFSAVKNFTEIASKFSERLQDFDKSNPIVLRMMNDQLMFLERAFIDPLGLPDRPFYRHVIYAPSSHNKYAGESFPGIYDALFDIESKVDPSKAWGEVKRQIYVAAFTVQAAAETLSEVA
T1 sequence (Q04609 whole entry): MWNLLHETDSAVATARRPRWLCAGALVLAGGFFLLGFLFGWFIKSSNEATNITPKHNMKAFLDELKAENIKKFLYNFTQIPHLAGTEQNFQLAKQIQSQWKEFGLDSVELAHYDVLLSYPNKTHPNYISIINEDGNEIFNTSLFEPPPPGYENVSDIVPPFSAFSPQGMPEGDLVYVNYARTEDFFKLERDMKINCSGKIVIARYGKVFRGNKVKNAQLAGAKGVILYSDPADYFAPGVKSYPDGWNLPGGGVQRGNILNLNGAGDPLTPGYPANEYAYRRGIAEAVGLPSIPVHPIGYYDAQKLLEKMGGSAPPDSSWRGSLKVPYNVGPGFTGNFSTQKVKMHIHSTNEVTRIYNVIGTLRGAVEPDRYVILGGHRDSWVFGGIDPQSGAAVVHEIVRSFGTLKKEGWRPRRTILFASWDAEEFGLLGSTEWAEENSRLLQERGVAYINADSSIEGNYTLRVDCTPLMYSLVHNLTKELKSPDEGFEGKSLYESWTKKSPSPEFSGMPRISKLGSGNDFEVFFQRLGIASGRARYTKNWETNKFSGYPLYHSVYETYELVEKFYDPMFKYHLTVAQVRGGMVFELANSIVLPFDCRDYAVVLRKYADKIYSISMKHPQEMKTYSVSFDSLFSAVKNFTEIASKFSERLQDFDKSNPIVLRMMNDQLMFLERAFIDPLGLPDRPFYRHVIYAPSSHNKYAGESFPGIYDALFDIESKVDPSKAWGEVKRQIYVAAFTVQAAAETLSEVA

Row | SMILES | IC50 [1, 5] | Kd [2, 6] | also measured
1 | C[C@@H](O)[C@H](NC(=O)[C@@H](NC(=O)[C@@H]1CSSC[C@H](NC(=O)[C@H](Cc2ccccc2)NC(=O)C(C)(C)NC(=O)[C@@H](NC(=O)CC2CCN(C(=O)CN3CCN(CC(=O)O)CCN(CC(=O)O)CCN(CC(=O)O)CC3)CC2)C(C)(C)C)C(=O)N[C@@H](CCCCN)C(=O)N[C@@H](CCCNC(=N)N)C(=O)NC(C)(C)C(=O)N[C@@H](CC(N)=O)C(=O)N1)C(C)(C)C)C(N)=O [PSM-0198, DOTA-Cmp-Tle-Aib-Phe-[Cys-Lys-Arg-Aib-Asn-Cys]-Tle-Thr-NH2] ({DOTA}-[X1][Tle][Aib]FCKR[Aib]NC[Tle]T-NH2; disulfide 5-10) |  |  | IC50 [1, 3]: 1260 to 3160 nM; Kd [2, 4]: 126 to 501 nM
2 | CC(=O)N[C@H](C(=O)NC(C)(C)C(=O)N[C@@H](Cc1ccc(Cl)cc1)C(=O)N[C@H]1CSSC[C@@H](C(=O)N[C@H](CC(C)C)C(=O)N[C@H](C(N)=O)[C@@H](C)O)NC(=O)[C@H](CC(N)=O)NC(=O)C(C)(C)NC(=O)[C@H](CCCNC(N)=O)NC(=O)[C@H](CCCCN)NC1=O)[C@@H](C)O [PSM-0421, Ac-Thr-Aib-Pcf-[Cys-Lys-Cit-Aib-Asn-Cys]-leu-Thr-NH2] (Ac-T[Aib][Phe(4-Cl)]CK[Cit][Aib]NC[dL]T-NH2; disulfide 4-9) | 200 to 1260 nM | 126 to 501 nM | 
3 | C[C@@H](O)[C@H](NC(=O)CC1CCN(C(=O)CN2CCN(CC(=O)O)CCN(CC(=O)O)CCN(CC(=O)O)CC2)CC1)C(=O)NC(C)(C)C(=O)N[C@@H](Cc1ccc(Cl)cc1)C(=O)N[C@H]1CSSC[C@@H](C(=O)N[C@H](C(=O)NCCN(C)C)C(C)(C)C)NC(=O)[C@H](CC(N)=O)NC(=O)C(C)(C)NC(=O)[C@H](CCCNC(=N)N)NC(=O)[C@H](CCCCN)NC1=O [PSM-0306, DOTA-Cmp-Thr-Aib-Pcf-[Cys-Lys-Arg-Aib-Asn-Cys]-Tle-en (Me) 2] ({DOTA}-[X1]T[Aib][Phe(4-Cl)]CKR[Aib]NC[Tle]-NHCH2CH2NMe2; disulfide 5-10) |  |  | IC50 ([1]; FACS binding, PSMA-expressing C4-2 cells, pIC50 category): < 200 nM; Kd ([2]; PSMA SPR assay, pKD category): 12.6 to 126 nM
4 | C[C@@H](O)[C@H](NC(=O)[C@@H](NC(=O)[C@@H]1CSSC[C@H](NC(=O)[C@H](Cc2ccc(Cl)cc2)NC(=O)C(C)(C)NC(=O)CC2CCN(C(=O)CN3CCN(CC(=O)O)CCN(CC(=O)O)CCN(CC(=O)O)CC3)CC2)C(=O)N[C@@H](CCCCN)C(=O)N[C@@H](CCC(=O)NC(=N)N)C(=O)NC(C)(C)C(=O)N[C@@H](CC(N)=O)C(=O)N1)C(C)(C)C)C(N)=O [PSM-0489, DOTA-Cmp-Aib-Pcf-[Cys-Lys-Gin (Gu)-Aib-Asn-Cys]-Tle-Thr-NH2] ({DOTA}-[X1][Aib][Phe(4-Cl)]CKE(Guanidino)[Aib]NC[Tle]T-NH2; disulfide 4-9) | < 200 nM | < 12.6 nM | 
5 | C[C@@H](O)[C@H](NC(=O)[C@@H](NC(=O)[C@@H]1CSSC[C@H](NC(=O)[C@H](Cc2ccccc2)NC(=O)C(C)(C)NC(=O)CC2NC(=O)NC2=O)C(=O)N[C@@H](CCCCN)C(=O)N[C@@H](CCCNC(=N)N)C(=O)NC(C)(C)C(=O)N[C@@H](CC(N)=O)C(=O)N1)C(C)(C)C)C(N)=O (stereo partly drawn) [PSM-0518, HYDAc-Aib-Phe-[Cys-Lys-Arg-Aib-Asn-Cys]-Tle-Thr-NH2] (X15-[Aib]FCKR[Aib]NC[Tle]T-NH2; disulfide 3-8) | < 200 nM | < 12.6 nM | 
6 | CC(=O)N[C@H](C(=O)N[C@@H](C)C(=O)N[C@@](C)(Cc1ccccc1)C(=O)N[C@H]1CSSC[C@@H](C(=O)N[C@H](C(=O)N[C@H](C(N)=O)[C@@H](C)O)C(C)(C)C)NC(=O)[C@H](CC(N)=O)NC(=O)C(C)(C)NC(=O)[C@H](CCCNC(=N)N)NC(=O)[C@H](CCCCN)NC1=O)[C@@H](C)O [PSM-0414, Ac-Thr-Ala-Amf-[Cys-Lys-Arg-Aib-Asn-Cys]-Tle-Thr-NH2] (Ac-TA[αMeF]CKR[Aib]NC[Tle]T-NH2; disulfide 4-9) | > 3160 nM | 12.6 to 126 nM | 
7 | CC(=O)N[C@H](C(=O)NC(C)(C)C(=O)N[C@@H](Cc1ccc(Cl)cc1)C(=O)N[C@H]1CSSC[C@@H](C(=O)N[C@H](C(=O)N[C@H](C(=O)N[C@H](CCCCNC(=O)CC2CCN(C(=O)CN3CCN(CC(=O)O)CCN(CC(=O)O)CCN(CC(=O)O)CC3)CC2)C(N)=O)[C@@H](C)O)C(C)(C)C)NC(=O)[C@H](CC(N)=O)NC(=O)C(C)(C)NC(=O)[C@H](CCCNC(=N)N)NC(=O)[C@H](CCCCN)NC1=O)[C@@H](C)O [PSM-0190, Ac-Thr-Aib-Pcf-[Cys-Lys-Arg-Aib-Asn-Cys]-Tle-Thr-lys(DOTA-Cmp)-NH2] (Ac-T[Aib][Phe(4-Cl)]CKR[Aib]NC[Tle]T[dK](Acetyl(1-DOTA-4-piperidyl))-NH2; disulfide 4-9) |  |  | IC50 [1, 3]: < 200 nM; Kd [2, 4]: < 12.6 nM
